Key:
[1] = tested on: CD3+ T cells obtained from HLA-A2+ donors; assay: Induction and phenotypic analysis of peptide-specific CTL by repeated peptide stimulation; assay type: cell-based, human
Description: The peptide-specific CTL were generated from different HLA-A2^+ normal donors for the evaluation of the functional activities targeting MM cell lines. To generate the peptide-specific CTL, mature dendritic cells (mDC) generated from the same donor were resuspended in serum-free AIM-V media and pulsed with 50 μg/ml of the Heteroclitic #4 BCMA72-80 (YLMFLLRKI (SEQ ID NO: 13)) peptide or “Heteroclitic #3 TACI154-162 (YLSADQVAL (SEQ ID NO: 16))” peptide, overnight at 37° C., 5% CO2 in humidified air. The peptide-pulsed mDC were washed, counted, irradiated at 10 Gy and used to prime CD3^+ T cells at a 1:20 antigen-presenting cells/peptide-to-CD3^+ T cell ratio in AIM-V media supplemented with 10% human AB serum. […] To maintain the T cells ex vivo, IL-2 (50 U/ml) was added to the cultures two days after the second stimulation. Control T cell cultures were maintained under the same culture conditions in the presence of IL-2 (50 U/ml), but without peptide stimulation. Phenotype of the resulting CTL was evaluated one week after each cycle of peptide stimulation. […] The BCMA peptide-specific CTL cultures contained a higher percentage of CD8^+ T cells (˜80%) upon 4 cycle of peptide stimulation compared to non-peptide stimulated control T cells (˜20%) (FIGS. 8A-8C).
Antigen-specific CTL can be phenotypically identified as activated/memory T cells from naïve T cells by their expression of distinct cell surface antigens. The phenotype of the BCMA-CTL were examined as potential effector cells by analyzing the phenotype of naïve and memory cells. BCMA peptide-specific CTL were generated by repeated stimulation of HLA-A2^+ normal donor's CD3^+ T cells weekly with antigen-presenting cells pulsed with 50 μg/ml heteroclitic BCMA72-80 (YLMFLLRKI (SEQ ID NO: 13)). One week after each peptide stimulation, the resulting CTL were evaluated for their phenotypic profile by flow cytometry.
BCMA peptide-specific CTL (BCMA-CTL) were generated ex vivo by repeated stimulation of CD3^+ T cells obtained from HLA-A2^+ donors with peptide-pulsed antigen-presenting cells (APC). In brief, peptide (50 μg/ml)-pulsed APC were irradiated (10 Gy) and used to stimulate T cells at a 1 APC/peptide: 20 T cell ratio. The T cell cultures were restimulated every 7 days and maintained in AIM-V medium supplemented with 10% human AB serum (BioWhittaker) in the presence of IL-2 (50 units/ml).
Phenotypic characterization was performed on BCMA-CTL after staining with Live/Dead Aqua stain kit and fluorochrome conjugated anti-human mAbs and Tetramer-PE. Alternatively, the MM and breast cancer cell lines were stained with fluorochrome-conjugated BCMA or HLA-A2 mAb. After staining, the cells were washed, fixed in 2% paraformaldehyde, and analyzed by flow cytometry.
TACI peptide-specific CTL (TACI-CTL) were generated ex vivo by repeated stimulation of enriched CD3^+ T cells obtained from HLA-A2^+ donors with peptide-pulsed antigen-presenting cells (APC). In brief, peptide (50 μg/ml)-pulsed APC were irradiated (10 Gy) and used to stimulate T cells at a 1:20 APC/peptide-to-T cell ratio. The T cell cultures were restimulated every 7 days and maintained in AIM-V medium supplemented with 10% human AB serum (BioWhittaker) in the presence of IL-2 (50 units/ml).
Phenotypic characterization was performed on the MM target cells to conform TACI expression. Phenotypic characterization was performed on the TACI-CTL after staining with Live/Dead Aqua stain kit and fluorochrome conjugated anti-human mAbs. After staining, the cells were washed, fixed in 2% paraformaldehyde, and analyzed by flow cytometry.

HLA-A2 molecule = biological target: T1, HLA-A2 molecule (Homo sapiens, UniProt P04439, D140Y/D185E/D98H/E176V/E277Q/G131W/G231S/I119V/I121R/I166T/I218V/L300P/L318F/N151K/N90K/P208A/P217A/Q86G/Q94H/R138H/R169H/T345S); assay: HLA-A2 binding affinity assay on peptide-pulsed T2 cells (HLA-A2 up-regulation, flow cytometry MFI)
T1 construct: endogenous in cells; host or cells: T2 cell line (human B and T cell hybrid), provided by Dr. J. Molldrem
Description: The listed BCMA peptides were evaluated for HLA-A2-specific binding capacity using the T2 cell line. In the assay, T2 cells were washed, resuspended in serum-free AIM-V medium to a final concentration of 1×10^6 cells/ml and transferred into wells of a 24-well tissue culture plate. The cells were pulsed with different concentrations of respective BCMA peptide (0-200 μg/ml) plus 3 μg/ml human β2-microglobulin (Sigma) and incubated at 37° C., 5% CO2 in humidified air. Following overnight incubation, the cells were washed, stained with mouse anti-human HLA-A2-FITC mAb for 15 minutes at 4° C., washed and analyzed using a FACSort™ flow cytometer with CellQuest™ v2.1 software (Becton Dickinson, San Jose, Calif.). […] Among the BCMA peptides evaluated, “#4. […] (FIG. 2).
(§1) T2 cells were pulsed overnight with various doses of peptide plus β2-microglobulin (3 μg/ml) (Sigma, St Louis, Mo.). Following overnight incubation, the cells were stained with HLA-A2-PE mAb and analyzed using a FACSCanto™ flow cytometer (BD). Peptide/HLA-A2 complex stability was measured on peptide loaded T2 cells at 0, 2, 4, 6 and 14 hours post-brefeldin A treatment by staining with HLA-A2-PE mAb and flow cytometric analysis.
as §1, with “concentrations” for “doses”, “The stability of peptide/HLA-A2” for “Peptide/HLA-A2”, “binding” for “stability”, “treatment followed” for “treatment”

[2] = Donor 1, after 2 cycles of peptide stimulation
[3] = Donor 1, after 4 cycles of stimulation
[4] = Donor 1, upon 4 cycles of stimulation
[5] = Donor 2, after 2 cycles of peptide stimulation
[6] = Donor 2, after 4 cycles of stimulation
[7] = Donor 2, upon 4 cycles of stimulation

HLA-A2 binding affinity, heteroclitic vs native peptide (HLA-A2 molecule; Example 4, FIGS. 4 and 5): increased from their native peptide
Sequence: YLMFLLRKI [heteroclitic BCMA72-80, heteroclitic BCMA peptide]
Naïve (CD45RO-CCR7+) within CD8+ T cells [1, 2]: 37.4%
central memory (CM; CD45RO+CCR7+) within CD8+ T cells [1, 2]: 32.1%
central memory (CM) within CD8+ T cells [1, 3]: 44.2%
effector memory (EM; CD45RO+CCR7-) within CD8+ T cells [1, 3]: 54.6%
frequency of memory CD3+CD8+ T cells [1, 4]: 86%
frequency of naive CD3+CD8+ T cells [1, 4]: 2%
Naïve (CD45RO-CCR7+) within CD8+ T cells [1, 5]: 19.0%
central memory (CM) within CD8+ T cells [1, 5]: 49.6%
central memory (CM) within CD8+ T cells [1, 6]: 18.3%
effector memory (EM) within CD8+ T cells [1, 6]: 77.6%
frequency of memory CD3+CD8+ T cells [1, 7]: 92%
frequency of naive CD3+CD8+ T cells [1, 7]: 2%
frequency of effector memory (CD45RO+/CCR7-) CD3+CD8+ T cells ([1]; after 4 cycles of peptide stimulation): increased
percentage of CD8+ T cells in peptide-specific CTL cultures ([1]; upon 4 cycle of peptide stimulation, 50 μg/ml): ~80%
change in HLA-A2 binding affinity of heteroclitic BCMA peptide compared to native peptide (HLA-A2 molecule; Example 12, n=3, p<0.05): highest increase in HLA-A2 binding affinity
